{"source": "patent US8853227B2", "about": "“Methotrexate adjuvants to reduce toxicity and methods for using the same” (Tosk, Incorporated, priority 2008, dated 2014)", "key": {"[1]": {"target": "human small intestinal UPase enzyme (Homo sapiens (Human), UniProt Q16831)", "sequence (Q16831 whole entry)": "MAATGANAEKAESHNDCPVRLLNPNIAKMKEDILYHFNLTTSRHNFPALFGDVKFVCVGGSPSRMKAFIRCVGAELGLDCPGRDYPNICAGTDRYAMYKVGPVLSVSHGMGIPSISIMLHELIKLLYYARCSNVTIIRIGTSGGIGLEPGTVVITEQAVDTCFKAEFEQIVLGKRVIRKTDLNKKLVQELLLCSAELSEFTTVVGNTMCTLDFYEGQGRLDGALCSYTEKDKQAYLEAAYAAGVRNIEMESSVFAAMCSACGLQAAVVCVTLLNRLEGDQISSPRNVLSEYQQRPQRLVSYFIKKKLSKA", "experiment": "UPase inhibition in human small intestinal tissue homogenate (HPLC of uracil)", "type": "biochemical", "details": "5 mM uridine, 37° C., pH 7.3", "procedure": "A range of TK-112690 doses were studied for the their ability to prevent metabolic breakdown of uridine through the in vitro inhibition of mouse and human small intestinal UPase enzyme. UPase activity was determined by HPLC analysis using UV detection of uracil concentration (UPase catabolizes uridine into uracil and ribose-1-phosphate). The UPase enzyme material was prepared from homogenized mouse and human being small intestinal tissue. TK-112690 was dissolved in water (50 mg/ml) and analyzed for UPase inhibition in aqueous solution containing 5 mM uridine, 0.01 M Tris, 0.01 M phosphate, 1 mM EDTA, and 1 mM DTT. Reactions were performed at 37° C. at pH of 7.3.\n[…] inhibition of mouse and human UPase was determined from measurements of uracil determined in homogenates by reverse phase HPLC using UV detection. […]\nThe aim of this study was to evaluate TK-112690 in vivo as an inhibitor of uridine phosphorylase (UPase) enzyme activity. […] Detection of UPase activity was determined by HPLC analysis using UV detection of uracil concentration (UPase catabolizes uridine into uracil and ribose-1-phosphate).\nThe UPase enzyme material was prepared from homogenized mouse and human being small intestinal tissue. TK-112690 was dissolved in water (50 mg/ml) and analyzed for UPase inhibition in aqueous solution containing 5 mM uridine, 0.01 M Tris, 0.01 M phosphate, 1 mM EDTA, and 1 mM DTT. […]"}, "[2]": {"experiment": "Mouse Study VI (plasma uridine and TK-112690 following TK-112690 treatment)", "type": "in vivo, CD-1 female mice", "procedure": "In this study, CD-1 female mice were injected ip with 120 mg/kg TK-112690 and plasma from the animals analyzed by HPLC using UV detection for TK-112690 and uridine. Concentrations of uridine and TK-112690 in plasma samples collected 0.08, 0.50, 1, 2, 4 or 12 hours post TK-112690 injection were determined by HPLC using UV detection. […] An increase in plasma uridine was noted almost immediately following administration of TK-112690. At 0.5 hour post TK-112690 dose, a 100 μg/mL plasma concentration TK-112690 is associated with a plasma uridine concentration of approximately 2 μg/mL of uridine (baseline uridine concentration approximately 0.5 μg/mL). As expected, inhibition of UPase by TK-112690 results in elevation of plasma uridine.\nPlasma uridine concentration was determined by HPLC using UV detectionafter animals were treated with TK-112690 as follows. TK-112690 was dissolved in PBS to achieve a concentration of 500 mg/mL. CD-1 female mice were injected ip with a range of TK-112690 doses (0, 15, 30, 60 and 120 mg/kg) and plasma from the animals analyzed for TK-112690 uridine concentrations expected to be elevated through UPase inhibition by TK-112690. Plasma uridine concentrations were determined from plasma samples collected 0.08, 0.50, 1, 2, 4 or 12 hours post TK-112690 injection.\nHPLC analysis was done at room temperature using a ThermoFinnigan Spectra System equipped with degasser, pump, autosampler and UV detector. Chromatograms will be constructed from a chart recorder equipped with a pen. […]\nThe micromolar concentration of plasma uridine was determined by linear equation (y=mx+b) generated from uridine and 5-FU calibration curve. The y value is calculated by taking ratio of peak heights (mm) of uridine and 5-FU. All peak heights from HPLC chromatograms were measured in millimeters using a ruler.\nAn identical approach was employed to quantitate TK-112690 in the samples except the response for TK-112690 was attenuated by a response factor determined from the injection into the HPLC of identical amounts of TK-112690 and uridine, […]"}}, "note": "pIC50: −log10 of the molar value.", "data": [{"smiles": "Cc1cn2c(nc1=O)O[C@H]1[C@H](O)[C@@H](CO)O[C@H]12", "note": "[TK-112690, 2,2′-anhydro-5-methyluridine]", "values": [{"measurement": "pIC50", "setting": "[1]", "value": 4.70}, {"measurement": "dose dependence of plasma concentrations of TK-112690", "setting": "[2]; 0, 15, 30, 60 and 120 mg/kg ip", "value": "increased with increasing doses"}, {"measurement": "plasma uridine concentration", "setting": "[2]; 0.5 hour post TK-112690 dose, at 100 μg/mL plasma TK-112690, baseline approximately 0.5 μg/mL", "value": "approximately 2 μg/mL"}, {"measurement": "concentration at 0.5 h", "setting": "[2]; female, CD-1, plasma, 120 mg/kg, 0.5 hour post TK-112690 dose, ip, mouse", "value": 100, "unit": "µg/mL"}]}]}
